# What was measured:
# [1] = test system: Pseudomonas aeruginosa; assay: Antimicrobial activity against Pseudomonas aeruginosa isolate 2804 obtained from cystic fibrosis patient by disk diffusion method; type: functional
# [2] = test system: Pseudomonas aeruginosa; assay: Antimicrobial activity against Pseudomonas aeruginosa isolate 2716 obtained from cystic fibrosis patient by agar dilution method
# [3] = test system: Pseudomonas aeruginosa; assay: Antimicrobial activity against Pseudomonas aeruginosa isolate 2729 obtained from cystic fibrosis patient by disk diffusion method; type: functional
# [4] = test system: Pseudomonas aeruginosa; assay: Antimicrobial activity against Pseudomonas aeruginosa isolate 2858 obtained from cystic fibrosis patient by disk diffusion method; type: functional
# [5] = test system: Pseudomonas aeruginosa; assay: Antimicrobial activity against Pseudomonas aeruginosa isolate 3066 obtained from cystic fibrosis patient by disk diffusion method; type: functional
# [6] = test system: Pseudomonas aeruginosa; assay: Antimicrobial activity against Pseudomonas aeruginosa isolate 615S obtained from cystic fibrosis patient by disk diffusion method; type: functional
# [7] = test system: Pseudomonas aeruginosa; assay: Antimicrobial activity against Pseudomonas aeruginosa isolate 2715 obtained from cystic fibrosis patient by agar dilution method
# [8] = test system: Pseudomonas aeruginosa; assay: Antimicrobial activity against Pseudomonas aeruginosa isolate 615R obtained from cystic fibrosis patient by disk diffusion method; type: functional
# [9] = test system: Pseudomonas aeruginosa; assay: Antimicrobial activity against Pseudomonas aeruginosa isolate 3020S obtained from cystic fibrosis patient by disk diffusion method; type: functional
# [10] = test system: Pseudomonas aeruginosa; assay: Antimicrobial activity against Pseudomonas aeruginosa isolate 2721 obtained from cystic fibrosis patient by agar dilution method
# [11] = test system: Pseudomonas aeruginosa; assay: Antimicrobial activity against Pseudomonas aeruginosa isolate 2998 obtained from cystic fibrosis patient by agar dilution method
# [12] = test system: Pseudomonas aeruginosa; assay: Antimicrobial activity against Pseudomonas aeruginosa PAO1 by twofold macrodilution method; type: functional
# [13] = test system: Pseudomonas aeruginosa; assay: Antimicrobial activity against Pseudomonas aeruginosa mutGR1 overexpressing mexXY mutant by twofold macrodilution method; type: functional
# [14] = test system: Pseudomonas aeruginosa; assay: Ratio of MIC for mexB deficient Pseudomonas aeruginosa FB1 mutant to Pseudomonas aeruginosa PAO1; type: functional
# [15] = test system: Pseudomonas aeruginosa; assay: Antimicrobial activity against Pseudomonas aeruginosa isolate 3020R obtained from cystic fibrosis patient by agar dilution method
# [16] = test system: Pseudomonas aeruginosa; assay: Antimicrobial activity against Pseudomonas aeruginosa isolate 2933 obtained from cystic fibrosis patient by disk diffusion method; type: functional
# [17] = test system: Pseudomonas aeruginosa; assay: Antimicrobial activity against ampicillin- and ticarcillin-resistant Pseudomonas aeruginosa FE60 mutant transformed with pAGH97 carrying mexXY F29S mutant by twofold macrodilution method; type: functional
# [18] = test system: Pseudomonas aeruginosa; assay: Antimicrobial activity against ampicillin- and ticarcillin-resistant Pseudomonas aeruginosa FE60 mutant transformed with pAGH97 carrying mexXY F1018L mutant by twofold macrodilution method; type: functional
# [19] = test system: Pseudomonas aeruginosa; assay: Antimicrobial activity against ampicillin- and ticarcillin-resistant Pseudomonas aeruginosa FE60 mutant transformed with pAGH97 carrying mexXY operon by twofold macrodilution method; type: functional
# [20] = test system: Pseudomonas aeruginosa; assay: Antimicrobial activity against mexXY operon inactivated Pseudomonas aeruginosa PAO1 by twofold macrodilution method; type: functional
# [21] = test system: Pseudomonas aeruginosa; assay: Antimicrobial activity against mexXY operon inactivated Pseudomonas aeruginosa isolate 615S obtained from cystic fibrosis patient by disk diffusion method; type: functional, organism-based
# [22] = test system: Pseudomonas aeruginosa; assay: Antimicrobial activity against mexXY operon inactivated Pseudomonas aeruginosa isolate 2858 obtained from cystic fibrosis patient by disk diffusion method; type: functional, organism-based
# [23] = test system: Pseudomonas aeruginosa; assay: Antimicrobial activity against mexXY deficient ampicillin- and ticarcillin-resistant Pseudomonas aeruginosa FE60 mutant by twofold macrodilution method; type: functional
Molecule,MIC [1] [µg/mL],MIC [2] [µg/mL],MIC [3] [µg/mL],MIC [4] [µg/mL],MIC [5] [µg/mL],MIC [6] [µg/mL],MIC [7] [µg/mL],MIC [8] [µg/mL],MIC [9] [µg/mL],MIC [10] [µg/mL],MIC [11] [µg/mL],MIC [12] [µg/mL],MIC [13] [µg/mL],MIC [15] [µg/mL],MIC [16] [µg/mL],MIC [17] [µg/mL],MIC [18] [µg/mL],MIC [19] [µg/mL],also measured
CC1(C)S[C@@H]2[C@H](NC(=O)[C@H](C(=O)O)c3ccsc3)C(=O)N2[C@H]1C(=O)O [TICARCILLIN],0.5,2,0.5,2,2,1,2,2,16,2,0.5,32,32,2,0.5,–,–,–,fold change (FC) [14]: 64
CO/N=C(\C(=O)N[C@@H]1C(=O)N2C(C(=O)[O-])=C(C[N+]3(C)CCCC3)CS[C@H]12)c1csc(N)n1,32,8,8,4,32,–,16,4,–,8,8,–,8,4,16,8,16,8,–
GENTAMICIN,64,–,8,4,64,1,–,8,2,–,–,1,2,–,16,1,2,1,MIC [20]: 0.125 µg/mL; MIC [21]: 0.125 µg/mL; MIC [22]: 0.125 µg/mL; MIC [23]: 0.125 µg/mL
O=C(O)c1cn(C2CC2)c2cc(N3CCNCC3)c(F)cc2c1=O [CIPROFLOXACIN],16,–,1,–,16,4,1,1,–,1,1,–,–,–,–,–,1,–,–

# — ChEMBL document CHEMBL1649198, “Efflux unbalance in Pseudomonas aeruginosa isolates from cystic fibrosis patients” (2009)
